{"source": "paper PMC2365101", "about": "“Anti-Inflammatory Activity of (Polyphenolic)-Sulfonates and Their Sodium Salts in Rodents” (Metal-Based Drugs, 1998)", "biological_target": "T1, IL-1 high affinity receptor on L929 fibroblasts (Mus musculus, UniProt P13504)", "T1 construct": "host or cells: L929 mouse fibroblasts", "T1 sequence (P13504 20-576)": "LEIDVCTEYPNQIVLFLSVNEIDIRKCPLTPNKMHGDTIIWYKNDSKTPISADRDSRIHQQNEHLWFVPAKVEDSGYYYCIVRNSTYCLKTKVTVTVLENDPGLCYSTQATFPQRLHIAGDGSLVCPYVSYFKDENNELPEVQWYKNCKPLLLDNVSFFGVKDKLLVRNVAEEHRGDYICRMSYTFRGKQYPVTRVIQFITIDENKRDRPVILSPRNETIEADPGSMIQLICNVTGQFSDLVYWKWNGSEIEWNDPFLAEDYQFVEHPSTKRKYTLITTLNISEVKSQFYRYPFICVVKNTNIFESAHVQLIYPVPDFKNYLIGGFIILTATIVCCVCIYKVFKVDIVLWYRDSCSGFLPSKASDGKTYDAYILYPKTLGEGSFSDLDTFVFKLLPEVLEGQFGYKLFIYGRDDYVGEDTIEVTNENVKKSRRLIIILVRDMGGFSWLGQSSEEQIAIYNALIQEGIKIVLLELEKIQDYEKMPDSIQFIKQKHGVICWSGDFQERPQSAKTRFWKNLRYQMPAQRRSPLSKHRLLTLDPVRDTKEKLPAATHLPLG", "assay": "125I-IL-1 high affinity binding to L929 fibroblasts", "settings": "for 125I-IL-1 binding, Percent of Control: at 8 Hours (table title), N=6; for reduction of IL-1 high affinity receptor binding: 5 to 50 μM, 5 hr", "source_text": "Few reports in the literature indicate interaction at these receptor sites other than by peptides or antibodies. […] Blocking these receptors is desirable because the entire inflammation cascade of events is triggered by the early release of TNFa and IL-1. […] Radioisotopes were obtained from New England Nuclear [Dupont, Boston, MA] and substrates and co- factors were obtained from Sigma Chemical Co. [St. Louis, MO]. […] Cell lines were obtained from American Type Culture Collection [Rockville, MD]. In Vivo Tests Anti-inflammatory screen in mice: Male CF male mice weighing 28-32g obtained from Jackson Lab. [Bar Harbor, […]] were used to screen agents at 8 or 16 mg/kg intraperitoneal [I.P.] x 2 administered 3 hr and 30 min prior to administering the irritant, according to Winter's protocol. Evaluation of the induced edema was made by injecting 2% carrageenan in 0.9% saline into the plantar region of the foot. The opposite foot injected with 0.9% isotonic saline was used as a base line. […] Salmonella abortus equi [Lot # 69F4003] […] Drugs from 2 to 16 mg/kg, I.P. were administered 2 hr prior and 2 hr post-injection of the LPS and then subsequently for every 24 hr for the length ofthe animals' lives. Deaths were recorded every 12 hr and continued for 96 hr. […] In vitro TNFa andIL-1 Measurements and Cellular Regulation IC-21 mouse macrophages were maintained in RPMI-1640 + 10% FCS + P/S. After the cells had grown to confluency, E. coli LPS at 10 Ixg/ml was added to the medium. Agents were incubated at 12.5 to 100 µM final concentration for 18 hr. The medium (100 btl) was collected for TNFCt determinations. Interleukin-1 [IL-1] release was determined using P388D1 cells which were maintained in RPMI-1640 + 10% FCS + P/S. The L929 bioassay was used to quantitate the TNF and the IL-1 levels. The L929 mouse fibroblasts were grown in DMEM + 10% FCS + P/S to confluency in 96 well plates and incubated with 100 tl ofmedium from IC-20 or P388D cells after 18 hr. The cells were stained with 0.2% crystal violet in 20% MeOH and read at 580 nm using a Molecular Devices scanner (SOFT-max program). […] The cells were washed repeatedly with isotonic saline, pH.7.2 and aliquots counted. Prostaglandin cylcooxygenase activity Mouse J774AI macrophages maintained in Dulbecco's modified Eagle's medium + 15% FCS + P/S. Cells (5 x 106) were incubated with agents (5 to 100 ].tM final concentration) and 3H-arachidonic acid (100 Ci/mol) for 60 min at 37C in a CO2 incubator. The reaction was terminated with 2N HCI, the mixture extracted 2 X with ether, and the organic layer evaporated.", "data": [{"compound": "COc1c2cc(S(=O)(=O)[O-])cc1Cc1cc(S(=O)(=O)[O-])cc(c1OC)Cc1cc(S(=O)(=O)[O-])cc(c1OC)Cc1cc(S(=O)(=O)[O-])cc(c1OC)Cc1cc(S(=O)(=O)[O-])cc(c1OC)Cc1cc(S(=O)(=O)[O-])cc(c1OC)C2.[Na+].[Na+].[Na+].[Na+].[Na+].[Na+]", "note": "[Compound 6]", "values": [{"measurement": "125I-IL-1 binding, Percent of Control", "setting": "5 μM", "result": "3+2% of Control"}, {"measurement": "125I-IL-1 binding, Percent of Control", "setting": "12.5 μM", "result": "3 + 2% of Control"}, {"measurement": "125I-IL-1 binding, Percent of Control", "setting": "25 μM", "result": "3 + 2% of Control"}, {"measurement": "125I-IL-1 binding, Percent of Control", "setting": "50 μM", "result": "3 + 1% of Control"}, {"measurement": "reduction of IL-1 high affinity receptor binding", "result": "greater than 90%"}]}, {"compound": "CC(=O)Oc1c2cc(S(=O)(=O)[O-])cc1Cc1cc(S(=O)(=O)[O-])cc(c1OC(C)=O)Cc1cc(S(=O)(=O)[O-])cc(c1OC(C)=O)Cc1cc(S(=O)(=O)[O-])cc(c1OC(C)=O)Cc1cc(S(=O)(=O)[O-])cc(c1OC(C)=O)Cc1cc(S(=O)(=O)[O-])cc(c1OC(C)=O)Cc1cc(S(=O)(=O)[O-])cc(c1OC(C)=O)Cc1cc(S(=O)(=O)[O-])cc(c1OC(C)=O)C2.[Na+].[Na+].[Na+].[Na+].[Na+].[Na+].[Na+].[Na+]", "note": "[Compound 8]", "values": [{"measurement": "125I-IL-1 binding, Percent of Control", "setting": "5 μM", "result": "9+ 1% of Control"}, {"measurement": "125I-IL-1 binding, Percent of Control", "setting": "12.5 μM", "result": "10 + 5% of Control"}, {"measurement": "125I-IL-1 binding, Percent of Control", "setting": "25 μM", "result": "9 + 5% of Control"}, {"measurement": "125I-IL-1 binding, Percent of Control", "setting": "50 μM", "result": "7 + 4% of Control"}, {"measurement": "reduction of IL-1 high affinity receptor binding", "result": "greater than 90%"}]}]}
